Test results: patent publication US20260191815A1, “THIOACRYLAMIDE DERIVATIVES FOR USE IN THE PREVENTION OR TREATMENT OF LIVER FIBROSIS” (CMR CUREDIAB METABOLIC RESEARCH GMBH, priority 2022, published 2026)

Tests used:
Type in all cases: cell-based
[1] = tested on: caspase 3/7 activity in HepG2 cells; assay: Caspase 3/7 activity provoked by palmitate in HepG2 cells; details: for reduction of the caspase 3/7 activity provoked by palmitate, compared among thioacrylamide derivatives: 100 nM + palmitate 200 μM, n=4; for activity at 10 µM: Homo sapiens, 10 μM pre-treatment 30 min + palmitate 200 μM, 24 h, read-out: caspase 3/7 activity, % of control
Procedure: The potential protective effect of HK1 and HK3 on caspase 3/7 activity in HepG2 cells and primary human hepatocytes was analysed.
HepG2 cells were obtained from Merck (Darmstadt, Germany) (ECACC-certified), while primary human hepatocytes were obtained from Thermo Fisher Scientific (Waltham, MA, USA), and all were cultured according to the instructions of the respective manufacturers. During experiments, cells were cultured in serum-free medium. Unless otherwise stated, cells were treated with 200 μM bovine serum albumin (BSA)-conjugated palmitate (Cayman Chemicals, Ann Arbor, MI) alone or in combination with 10 μM HK1 (Taros Chemicals GmbH & Co. KG, Dortmund, Germany) and HK3 (Taros Chemicals GmbH & Co. KG, Dortmund, Germany) 30 min prior to palmitate exposure for 24 hours. The vehicle BSA was used according to the palmitate concentration and DMSO according to HK1 and HK3 concentration. 2 μM Staurosporine (Abcam, Cambridge, GB) was used as a positive and 100 μM Caspase 3/7 inhibitor (CI) (Cayman Chemicals) as a negative control.
Differences were analysed by one-way ANOVA.
A hepatoprotective effect was determined as described in Example 4. A treatment was performed with HK1, HK2, HK3, HK4 or HK5 (100 nM) either alone or in combination with palmitate (200 μM).
Differences were analysed by one-way ANOVA, n=4.

[2] = tested on: 3D primary human hepatocyte (PHH) spheroid NASH model; assay: Viability (ATP, CellTiter-Glo) of 3D PHH:NPC spheroids; details: 0.1 μM to 10 μM, up to 2 weeks
Procedure: (§1) Experiments were conducted using HepaPredict's (HepaPredict AB, Sweden) 3D primary human hepatocyte (PHH) spheroid NASH model (e.g. as published in Bell et al. Sci Rep. 2016 May 4; 6:25187. doi: 10.1038/srep25187).
Cryopreserved primary human hepatocytes were obtained from BioIVT (USA) and nonparenchymal cells (NPC) from LifeNetHealth (USA). After thawing, PHH-NPC cocultures were seeded in a multi-well 96-well Elplasia plate (Corning) in William's E medium containing 11 mM glucose, 10 μg/mL (control) or 10 mg/mL insulin (NASH), 100 nM dexamethasone, 5.5 mg/L transferrin, 6.7 μg/L selenite, 2 mM L-glutamine, 1 U/mL penicillin, 0.1 mg/mL streptomycin, and 10% fetal bovine serum (FBS). […]
After spheroid formation, cells were exposed to up to five different concentrations of the candidate molecules HK1 or HK3 (0.1 μM, 0.3 μM, 1 μM, 3 μM, and 10 μM) with or without FFA in the culture medium. […] All endpoints were evaluated after 14 days of exposure. […]
Viability was evaluated by ATP quantification using the CellTiter-Glo Luminescent Cell Viability Assay (Promega) according to the manufacturer's instructions. […] Subsequently, luminescence signals were measured using a SpectraMax iD5 multi-mode microplate reader (Molecular Devices). Viability was evaluated after up to two weeks of exposure and values are plotted as relative to vehicle (DMSO) controls with or without FFA. […]

[3] = tested on: 3D primary human hepatocyte (PHH) spheroid NASH model; assay: Intracellular lipid accumulation (AdipoRed) in 3D PHH:NPC NASH spheroids; details: NASH medium; for lipid contents of spheroids compared to NASH (100%): 1 week of exposure
Procedure: as §1
Cryopreserved primary human hepatocytes were obtained from BioIVT (USA) and nonparenchymal cells (NPC) from LifeNetHealth (USA). After thawing, PHH-NPC cocultures were seeded in a multi-well 96-well Elplasia plate (Corning) in William's E medium containing 11 mM glucose, 10 μg/mL (control) or 10 mg/mL insulin (NASH), 100 nM dexamethasone, 5.5 mg/L transferrin, 6.7 μg/L selenite, 2 mM L-glutamine, 1 U/mL penicillin, 0.1 mg/mL streptomycin, and 10% fetal bovine serum (FBS). PHH-NPC cocultures were seeded in ratio of 6:1 PHH:NPC with a total of 40,000 PHH per well. When spheroids were formed, FBS was phased out and spheroids were maintained in either the same media to provide the negative control (“Ctrl”), or with addition of albumin-conjugated free fatty acid (FFA), comprised of 240 μM palmitic acid and 240 μM oleic acid (NASH medium) to provide the positive control (“NASH”). Compound exposure was conducted in NASH medium with medium exchanges every 48-72 hours.
For cell viability and intracellular lipid accumulation assays, cells were seeded as previously reported (Bell et al., SciRep, 2016). In short, PHH and NPC were seeded as a single spheroid per well into 96-well ultra-low attachment (ULA) plates (Corning) at 1,500 viable cells per well with the PHH:NPC ratio 6:1.
After spheroid formation, cells were exposed to up to five different concentrations of the candidate molecules HK1 or HK3 (0.1 μM, 0.3 μM, 1 μM, 3 μM, and 10 μM) with or without FFA in the culture medium. All compound stocks and dilutions were prepared in DMSO, aliquoted and stored protected from light at −20° C. Fresh dosing solutions were prepared from these aliquots on each dosing day. All endpoints were evaluated after 14 days of exposure.
For statistical comparisons, normalized values for a given condition were compared to either the corresponding vehicle (DMSO) controls or the respective FFA (NASH) controls at the same time point using heteroscedastic unpaired two-tailed t-tests.
Intracellular lipid accumulation was quantified using the AdipoRed Adipogenesis Assay Kit (Lonza) following the manufacturer's instructions. […] Afterwards, spheroids were disrupted by vigorous pipetting and fluorescence was measured (Ex/Em: 485/572) using a SpectraMax iD5 multi-mode microplate reader (Molecular Devices).
To evaluate whether the two candidate compounds HK1 and HK3 impacted hepatic steatosis, we assessed their impact on intracellular triglyceride accumulation after 1 week of exposure. […]

## Cc1cc(NC(=S)/C(C#N)=C(\O)C2CC2)ccc1[N+](=O)[O-] [HK3, 2-Cyano-3-cyclopropyl-3-hydroxy-N-(3-methyl-4-nitro-phenyl)-thioacrylamide]
[1]
  reduction of the caspase 3/7 activity provoked by palmitate, compared among thioacrylamide derivatives: strongest reduction
  activity at 10 µM: 42.3%
[2]
  viability of the spheroids (ATP) relative to vehicle (DMSO): did not affect
[3]; across 1 μM, 3 μM and 10 μM, 1 week
  accumulation of intracellular lipids compared to the positive control: 46-49%

## Cc1cc(NC(=S)/C(C#N)=C(\O)C2CC2)ccc1F [HK1, 2-Cyano-3-cyclopropyl-N-(4-fluoro-3-methyl-phenyl)-3-hydroxy-thioacrylamide]
[1]
  reduction of the caspase 3/7 activity provoked by palmitate, compared among thioacrylamide derivatives: stronger reduction
  activity at 10 µM: 263%
[2]
  viability of the spheroids (ATP) relative to vehicle (DMSO): did not affect
[3]; 1 μM
  lipid contents of spheroids compared to NASH (100%): 79%
[3]; 3 μM
  lipid contents of spheroids compared to NASH (100%): 81%
[3]; 10 μM
  lipid contents of spheroids compared to NASH (100%): 62%
